Experimental data as given in US20250228772A1, “DRUG DELIVERY SYSTEM COMPRISING A REFLUX INHIBITOR FOR THE APPLICATION TO ESOPHAGEAL MUCOUS MEMBRANES” (EsoCap AG, priority 2022, published 2025).

Tests used:
[1] = system: transient lower esophageal sphincter relaxations; conditions: after systemic administration (Lidums 2000); cited from earlier work
[2] = UV/Vis spectroscopy of film samples against a reference sample; type: physicochemical; conditions: PVA 18-88/glycerol film, FSG medium pH 1.2, spectrum compared with a reference sample
Method: Further, the film was analyzed for the content of Baclofen. To this end, 6 circular samples with a diameter of 1.9 cm (2.84 cm^2) were cut at random positions of the film and analyzed with a UV/Vis spectroscopy in FSG medium, pH 1.2. The absorption spectrum is shown in FIG. 10 in comparison to a reference sample comprising Baclofen solved in FSG medium, pH 1.2.

[3] = system: reflux episodes and transient lower esophageal sphincter relaxations; conditions: meta-analysis of nine clinical studies; cited from earlier work
[4] = oral administration, clinical use, 15 to 75 mg per day; cited from earlier work

NCC(CC(=O)O)c1ccc(Cl)cc1 (stereo not drawn) [Baclofen, 4-Amino-3-(4-chlorphenyl) butyric acid]
transient lower esophageal sphincter relaxations [1]: control transient lower esophageal sphincter relaxations | stability of Baclofen in the polymer film [2]: can be stably prepared in a film | incidence of transient lower esophageal sphincter relaxations [3]: decreased | length of reflux episodes [3]: decreased | number of reflux episodes [3]: decreased | tolerability / side effects [4]: poor tolerability due to severe side effects
